According to US20240197761A1, “FUCOSYLATION AND IMMUNE MODULATION IN CANCER” (H. LEE MOFFITT CANCER CENTER AND RESEARCH INSTITUTE, INC., priority 2021, published 2024):

System: SW1 tumors
Assay: Control vs. L-fucose ± FTY720 model: tumor growth and flow cytometric profiling of tumors and lymph nodes (Table 1)
Assay type: in vivo, C3H/HeN mice
Description: FIGS. 15A-15E Lymph node egress is necessary for L-fucose-triggered tumor suppression; L-fucose increases intratumoral CD4+T stem and central memory cells. (a) Immune subpopulations markers use to profile by flow cytometry. (b) Volumetric growth curves for SW1 tumors in C3H/HeN mice fed without (Ctl) or with L-fucose (LF) and treated with FTY720 (Ctl mice administered FTY720: (FTY); LF-supplemented mice administered FTY720: (L+F)). FTY720 was administered at 20 μg per mouse every 2 days starting on Day 12, just prior to the initiation of LF (c) Pie charts showing ratios of intratumoral or lymph node-resident CD4+ or CD8+T cell subpopulations, as well as DC subtypes from mice at Day 14, 28, and 42 (each pie chart represents 4-5 mice). Assessment of cytotoxic CD4+ T cell populations (CRTAM+) and cytotoxic CD8+ T cell populations (GrzB+) from tumors at Day 28 (d) and Day 42 (e). The tumor growth curves are means±SEM from ≥7 mice per group. *=p<0.05.
Tumors of SW1 or SM1 melanoma cells from […] or C57BL/6 mice, respectively) were digested using 1× tumor digest buffer (0.5 mg/mL Collagenase I, 0.5 mg/mL Collagenase IV, 0.25 mg/mL Hyalyronidase V, 0.1 mg/mL DNAse I in HBSS (Millipore Sigma (St. Louis, MO)). Tumors were homogenized using the Miltenyi MACs dissociator. Red blood cells were lysed using ACK lysis buffer (Life Technologies, (Grand Island, NY)). Tumor homogenate cells were counted using a standard hemocytometer.
Total TILs were gated first to single cells (based on forward scatter height vs width, followed by side scatter height vs. width). Live cells were gated from the Zombie negative population from the population above. TILs were gated based on splenocyte size from a control spleen. Individual immune subpopulations were sub-gated from the total TIL population using the following staining criteria: CD3+ for CD3+ T cells; CD3+/CD4+/CD8− for CD4+T cells; CD3+/CD4−/CD8+ for CD8+ T cells, CD11c+/CD11b+ for DCs; either NK1.1 (for C57/BL6 mice) or DX5 (for C3H/HeJ) for NK cells; CD11b+/GR1+ for MDSC-like cells; and F4/80+ for macrophages. Single-cell suspensions from tumor and spleen tissue were stained with Live/Dead Zombie NIR (Biolegend, (San Diego, CA)) at 1:1,000 in PBS for 20 min. Cell suspensions were spun down and stained with the following with antibodies at 0.5 μg/ml per antibody: APC anti-mouse CD3, Pacific Blue anti-mouse CD4, BV785 anti-mouse CD8, PerCP anti-mouse CD25, FITC anti-mouse F4/80, PeCy7 anti-mouse CD11c, PE anti-mouse NK1.1 or PE anti-mouse DX5, and PerCP-Cy5.5 anti-mouse CD11 b. After staining, the cells were washed and fixed (2% formaldehyde), followed by another wash and flow cytometric analysis. The compensation controls were prepared using 0.5 μg/mL of each antibody with UltraComp eBeads, (ThermoFisher Scientific (Waltham, MA)). All samples were subject to flow cytometric profiling using a LSR Flow Cytometer (BD Biosciences (San Jose, CA)) and analysis as indicated using FlowJo software (BD Biosciences (San Jose, CA)).
SW1 or SM1 mouse melanoma cells were injected into syngeneic C3H/HeN (or NSG) female or C57BL/6 male mice, respectively. Cells were injected as follows: parental SW1 cells for FIG. 13A; parental SM1 cells for FIG. 13E; SW1 cells stably expressing either empty vector (EV) or mouse fucose kinase (mFuk) for FIG. 1L; and parental SW1 cells for FIG. 13M. FTY720 was administered at 20 μg every 2 days starting on Day 12, just prior to the initiation of LF, until endpoint.

With CCCCCCCCc1ccc(CCC(N)(CO)CO)cc1 [FTY720, reference compound] the “CD4 central memory, average # of cells” value (Day 28, lymph nodes) was 1362.38 per 10^6 cells of total tumor, the “CD4 effector memory, average # of cells” value (Day 28, lymph nodes) was 372.53 per 10^6 cells of total tumor and the “CD4 naïve, average # of cells” value (Day 28, lymph nodes) was 20717.91 per 10^6 cells of total tumor. The “CD4 stem central memory, average # of cells” value (“CD4 stem central memory” for short) (Day 28, lymph nodes) was 24893.27 per 10^6 cells of total tumor, the “CD8 central memory, average # of cells” value (Day 28, lymph nodes) was 85.45 per 10^6 cells of total tumor and the “CD8 effector memory, average # of cells” value (Day 28, lymph nodes) was 421.08 per 10^6 cells of total tumor. For the same compound, the “CD8 naïve, average # of cells” value (Day 28, lymph nodes) was 6153.14 per 10^6 cells of total tumor, the “CD8 stem central memory, average # of cells” value (shortened to “CD8 stem central memory”) (Day 28, lymph nodes) was 311.59 per 10^6 cells of total tumor and the “cDC1, average # of cells” value (Day 28, lymph nodes) was 147.79 per 10^6 cells of total tumor. For the same compound, the “cDC2, average # of cells” value (Day 28, lymph nodes) was 448.71 per 10^6 cells of total tumor, the “moDC, average # of cells” value (Day 28, lymph nodes) was 41.74 per 10^6 cells of total tumor and the “CD4 central memory, average # of cells” value (Day 28, tumors) was 11.56 per 10^6 cells of total tumor. The “CD4 effector memory, average # of cells” value (Day 28, tumors) was 336.07 per 10^6 cells of total tumor, the “CD4 naïve, average # of cells” value (Day 28, tumors) was 60.03 per 10^6 cells of total tumor and the “CD4 stem central memory” value (Day 28, tumors) was 0.87 per 10^6 cells of total tumor. The “CD8 central memory, average # of cells” value (Day 28, tumors) was 1.22 per 10^6 cells of total tumor, the “CD8 effector memory, average # of cells” value (Day 28, tumors) was 54.02 per 10^6 cells of total tumor and the “CD8 naïve, average # of cells” value (Day 28, tumors) was 24.54 per 10^6 cells of total tumor. For the same compound, the “CD8 stem central memory” value (Day 28, tumors) was 0.00 per 10^6 cells of total tumor, the “cDC1, average # of cells” value (Day 28, tumors) was 463.94 per 10^6 cells of total tumor and the “cDC2, average # of cells” value (Day 28, tumors) was 8181.08 per 10^6 cells of total tumor. The “moDC, average # of cells” value (Day 28, tumors) was 7526.28 per 10^6 cells of total tumor, the “CD4 central memory, average # of cells” value (Day 42, lymph nodes) was 949.35 per 10^6 cells of total tumor and the “CD4 effector memory, average # of cells” value (Day 42, lymph nodes) was 3499.07 per 10^6 cells of total tumor. For the same compound, the “CD4 naïve, average # of cells” value (Day 42, lymph nodes) was 65491.17 per 10^6 cells of total tumor, the “CD4 stem central memory” value (Day 42, lymph nodes) was 742.12 per 10^6 cells of total tumor and the “CD8 central memory, average # of cells” value (Day 42, lymph nodes) was 949.35 per 10^6 cells of total tumor. For the same compound, the “CD8 effector memory, average # of cells” value (Day 42, lymph nodes) was 3499.07 per 10^6 cells of total tumor, the “CD8 naïve, average # of cells” value (Day 42, lymph nodes) was 65491.17 per 10^6 cells of total tumor and the “CD8 stem central memory” value (Day 42, lymph nodes) was 742.12 per 10^6 cells of total tumor. For the same compound, the “cDC1, average # of cells” value (Day 42, lymph nodes) was 1731.49 per 10^6 cells of total tumor, the “cDC2, average # of cells” value (Day 42, lymph nodes) was 3881.72 per 10^6 cells of total tumor and the “moDC, average # of cells” value (Day 42, lymph nodes) was 1219.26 per 10^6 cells of total tumor. The “CD4 central memory, average # of cells” value (Day 42, tumors) was 32.54 per 10^6 cells of total tumor, the “CD4 effector memory, average # of cells” value (Day 42, tumors) was 160.89 per 10^6 cells of total tumor and the “CD4 naïve, average # of cells” value (Day 42, tumors) was 44.22 per 10^6 cells of total tumor. For the same compound, the “CD4 stem central memory” value (Day 42, tumors) was 18.52 per 10^6 cells of total tumor, the “CD8 central memory, average # of cells” value (Day 42, tumors) was 5.73 per 10^6 cells of total tumor and the “CD8 effector memory, average # of cells” value (Day 42, tumors) was 220.02 per 10^6 cells of total tumor. For the same compound, the “CD8 naïve, average # of cells” value (Day 42, tumors) was 19.42 per 10^6 cells of total tumor, the “CD8 stem central memory” value (Day 42, tumors) was 0.00 per 10^6 cells of total tumor and the “cDC1, average # of cells” value (Day 42, tumors) was 607.65 per 10^6 cells of total tumor. The “cDC2, average # of cells” value (Day 42, tumors) was 279.84 per 10^6 cells of total tumor, the “moDC, average # of cells” value (Day 42, tumors) was 197.56 per 10^6 cells of total tumor and the “intratumoral CD4+T central and effector memory subpopulations” value (FIG. 15c) was “abrogated”.
